Test results from ChEMBL document CHEMBL4038335, “Neuroactive Steroids. 2. 3α-Hydroxy-3β-methyl-21-(4-cyano-1H-pyrazol-1'-yl)-19-nor-5β-pregnan-20-one (SAGE-217): A Clinical Next Generation Neuroactive Steroid Positive Allosteric Modulator of the (γ-Aminobutyric Acid)A Receptor” (J Med Chem, 2017).
Converted amounts (≈) assume the structure as drawn.

System: not listed separately
Test: Oral bioavailability in CD1 mouse at 20 mg/kg measured up to 8 hrs post dose by LC/MS-MS analysis
Format: ADME, organism-based
Settings: in vivo

Structure (SMILES) | bioavailability
C[C@@]1(O)CC[C@H]2[C@H](CC[C@@H]3[C@@H]2CC[C@]2(C)[C@@H](C(=O)Cn4cccn4)CC[C@@H]32)C1 | 5%
Cc1cnn(CC(=O)[C@H]2CC[C@H]3[C@@H]4CC[C@@H]5C[C@](C)(O)CC[C@@H]5[C@H]4CC[C@]23C)c1 | 6%

System: not listed separately
Test: Displacement of [35S]TBPS from GABA-A receptor in Sprague-Dawley rat cerebral cortex cell membranes after 90 mins in presence of GABA by liquid scintillation counting
Settings: not given

Structure (SMILES) | IC50
C[C@@]1(O)CC[C@H]2[C@H](CC[C@@H]3[C@@H]2CC[C@]2(C)[C@@H](C(=O)Cn4ncc(C#N)n4)CC[C@@H]32)C1 | 78 nM
C[C@@]1(O)CC[C@H]2[C@H](CC[C@@H]3[C@@H]2CC[C@]2(C)[C@@H](C(=O)Cn4cc(C#N)nn4)CC[C@@H]32)C1 | 251 nM
C[C@@]1(O)CC[C@H]2[C@H](CC[C@@H]3[C@@H]2CC[C@]2(C)[C@@H](C(=O)Cn4cccn4)CC[C@@H]32)C1 | 30 nM
Cc1cnn(CC(=O)[C@H]2CC[C@H]3[C@@H]4CC[C@@H]5C[C@](C)(O)CC[C@@H]5[C@H]4CC[C@]23C)c1 | 49 nM

Molecular target: T1, GABA-A receptor; alpha-1/beta-2/gamma-2 (Homo sapiens, UniProt P14867+P18507+P47870)
T1 sequence (P14867 whole entry): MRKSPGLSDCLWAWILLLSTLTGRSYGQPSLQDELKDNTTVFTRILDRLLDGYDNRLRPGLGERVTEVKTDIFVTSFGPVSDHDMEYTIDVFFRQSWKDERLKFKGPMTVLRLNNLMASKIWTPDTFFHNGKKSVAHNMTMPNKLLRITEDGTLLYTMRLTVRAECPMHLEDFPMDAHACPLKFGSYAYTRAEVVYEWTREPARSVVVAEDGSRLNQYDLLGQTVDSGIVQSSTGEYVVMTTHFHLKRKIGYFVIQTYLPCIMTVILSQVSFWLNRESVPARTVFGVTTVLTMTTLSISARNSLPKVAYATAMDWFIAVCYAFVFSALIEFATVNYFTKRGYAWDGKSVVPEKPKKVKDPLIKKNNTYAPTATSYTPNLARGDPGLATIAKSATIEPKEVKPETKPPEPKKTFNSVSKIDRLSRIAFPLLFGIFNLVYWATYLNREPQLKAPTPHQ
T1 sequence (P47870 whole entry): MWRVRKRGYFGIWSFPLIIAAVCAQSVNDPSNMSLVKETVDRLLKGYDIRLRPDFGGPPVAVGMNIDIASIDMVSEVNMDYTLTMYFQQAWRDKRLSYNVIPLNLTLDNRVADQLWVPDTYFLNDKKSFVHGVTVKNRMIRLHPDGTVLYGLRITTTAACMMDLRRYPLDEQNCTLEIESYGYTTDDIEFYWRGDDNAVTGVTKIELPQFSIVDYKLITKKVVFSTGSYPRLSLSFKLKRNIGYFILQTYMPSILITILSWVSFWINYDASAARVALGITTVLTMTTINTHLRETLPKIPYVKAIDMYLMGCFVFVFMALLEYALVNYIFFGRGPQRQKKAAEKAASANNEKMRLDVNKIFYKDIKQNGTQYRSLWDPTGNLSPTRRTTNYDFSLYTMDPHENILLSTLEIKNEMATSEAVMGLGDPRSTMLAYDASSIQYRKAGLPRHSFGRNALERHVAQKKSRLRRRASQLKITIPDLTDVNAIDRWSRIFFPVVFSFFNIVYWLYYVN
T1 sequence (P18507 whole entry): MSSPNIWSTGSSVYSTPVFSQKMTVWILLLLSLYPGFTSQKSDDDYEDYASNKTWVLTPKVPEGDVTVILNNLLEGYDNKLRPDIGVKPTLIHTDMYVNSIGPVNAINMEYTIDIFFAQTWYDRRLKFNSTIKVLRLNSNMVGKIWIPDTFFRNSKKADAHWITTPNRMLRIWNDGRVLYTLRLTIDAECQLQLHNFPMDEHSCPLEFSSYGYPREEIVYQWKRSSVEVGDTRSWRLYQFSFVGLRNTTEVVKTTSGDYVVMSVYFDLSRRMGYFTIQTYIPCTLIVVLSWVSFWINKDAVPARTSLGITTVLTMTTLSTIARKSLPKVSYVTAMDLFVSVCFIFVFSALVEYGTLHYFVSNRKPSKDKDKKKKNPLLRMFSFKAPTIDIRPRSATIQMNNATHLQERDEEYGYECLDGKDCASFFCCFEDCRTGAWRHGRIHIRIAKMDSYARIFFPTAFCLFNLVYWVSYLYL
Test: Positive allosteric modulation of GABAA receptor alpha1beta2gamma2 (unknown origin) expressed in mouse LTK cells assessed as potentiation of GABA-mediated increase in channel current under holding potential at -80 mV preincubated for 30 secs followed by GABA stimulation for 2 secs by automated patch clamp assay
Format: cell-based
Settings: not given

Structure (SMILES) | EC50
C[C@@]1(O)CC[C@H]2[C@H](CC[C@@H]3[C@@H]2CC[C@]2(C)[C@@H](C(=O)Cn4ncc(C#N)n4)CC[C@@H]32)C1 | > 3000 nM
C[C@@]1(O)CC[C@H]2[C@H](CC[C@@H]3[C@@H]2CC[C@]2(C)[C@@H](C(=O)Cn4cccn4)CC[C@@H]32)C1 | 979 nM
Cc1cnn(CC(=O)[C@H]2CC[C@H]3[C@@H]4CC[C@@H]5C[C@](C)(O)CC[C@@H]5[C@H]4CC[C@]23C)c1 | 291 nM

System: not listed separately
Test: Clearance in rat hepatic microsomes at 10 uM preincubated for 5 mins followed by NADPH addition measured over 60 mins by HPLC-MS/MS analysis
Format: ADME, Microsome
Settings: liver microsomes

Structure (SMILES) | CLhep predicted at 10 µM
C[C@@]1(O)CC[C@H]2[C@H](CC[C@@H]3[C@@H]2CC[C@]2(C)[C@@H](C(=O)Cn4cccn4)CC[C@@H]32)C1 | 41.7 mL/min/kg
Cc1cnn(CC(=O)[C@H]2CC[C@H]3[C@@H]4CC[C@@H]5C[C@](C)(O)CC[C@@H]5[C@H]4CC[C@]23C)c1 | 50 mL/min/kg

Molecular target: Gamma-aminobutyric acid receptor subunit alpha-4/beta3/delta (Homo sapiens, UniProt O14764+P28472+P48169)
Test: Positive allosteric modulation of GABAA receptor alpha4beta3delta (unknown origin) expressed in CHO cells assessed as potentiation of GABA-mediated increase in channel current under holding potential at -80 mV preincubated for 30 secs followed by GABA stimulation for 2 secs by manual patch clamp assay
Format: cell-based
Settings: not given

Sequence of Gamma-aminobutyric acid receptor subunit alpha-4/beta3/delta (P28472 whole entry): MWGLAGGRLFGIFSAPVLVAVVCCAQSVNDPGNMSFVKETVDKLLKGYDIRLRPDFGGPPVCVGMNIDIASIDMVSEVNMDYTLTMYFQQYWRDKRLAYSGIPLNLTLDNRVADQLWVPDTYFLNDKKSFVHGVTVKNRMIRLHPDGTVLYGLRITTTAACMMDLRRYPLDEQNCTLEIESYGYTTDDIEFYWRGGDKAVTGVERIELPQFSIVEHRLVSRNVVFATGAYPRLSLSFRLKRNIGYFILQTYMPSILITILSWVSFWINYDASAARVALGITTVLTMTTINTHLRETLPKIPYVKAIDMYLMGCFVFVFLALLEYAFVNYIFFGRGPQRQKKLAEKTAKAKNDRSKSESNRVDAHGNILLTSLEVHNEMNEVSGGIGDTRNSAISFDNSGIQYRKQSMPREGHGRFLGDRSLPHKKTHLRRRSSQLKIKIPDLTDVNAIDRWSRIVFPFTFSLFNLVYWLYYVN
Sequence of Gamma-aminobutyric acid receptor subunit alpha-4/beta3/delta (P48169 whole entry): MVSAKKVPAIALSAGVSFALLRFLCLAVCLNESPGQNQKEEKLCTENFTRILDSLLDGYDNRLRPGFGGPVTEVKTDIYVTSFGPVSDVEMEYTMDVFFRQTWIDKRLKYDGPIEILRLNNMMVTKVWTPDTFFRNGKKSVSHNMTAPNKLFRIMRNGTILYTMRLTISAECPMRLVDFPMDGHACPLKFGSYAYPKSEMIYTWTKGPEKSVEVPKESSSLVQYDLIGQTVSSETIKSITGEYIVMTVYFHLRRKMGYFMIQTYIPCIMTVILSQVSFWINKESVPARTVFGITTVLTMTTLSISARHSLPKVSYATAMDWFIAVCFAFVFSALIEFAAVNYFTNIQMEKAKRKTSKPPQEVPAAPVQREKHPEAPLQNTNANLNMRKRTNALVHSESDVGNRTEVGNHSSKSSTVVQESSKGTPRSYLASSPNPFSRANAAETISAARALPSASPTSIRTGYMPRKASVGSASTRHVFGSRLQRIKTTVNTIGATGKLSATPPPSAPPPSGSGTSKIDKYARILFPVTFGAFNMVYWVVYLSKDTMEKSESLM
Sequence of Gamma-aminobutyric acid receptor subunit alpha-4/beta3/delta (O14764 whole entry): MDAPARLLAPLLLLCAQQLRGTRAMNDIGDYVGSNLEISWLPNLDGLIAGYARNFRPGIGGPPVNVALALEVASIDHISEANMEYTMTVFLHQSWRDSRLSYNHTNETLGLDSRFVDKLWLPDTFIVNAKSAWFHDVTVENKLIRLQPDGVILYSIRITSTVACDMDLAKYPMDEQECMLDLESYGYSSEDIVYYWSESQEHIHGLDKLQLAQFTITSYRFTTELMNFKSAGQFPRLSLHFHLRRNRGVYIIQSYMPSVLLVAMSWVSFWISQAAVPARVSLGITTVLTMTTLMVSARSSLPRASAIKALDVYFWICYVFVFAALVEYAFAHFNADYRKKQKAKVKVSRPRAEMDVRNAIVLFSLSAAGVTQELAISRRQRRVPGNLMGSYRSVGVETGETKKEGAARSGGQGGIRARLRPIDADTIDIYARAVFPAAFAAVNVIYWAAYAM

Structure (SMILES) | EC50
C[C@@]1(O)CC[C@H]2[C@H](CC[C@@H]3[C@@H]2CC[C@]2(C)[C@@H](C(=O)Cn4cccn4)CC[C@@H]32)C1 | 1240 nM
Cc1cnn(CC(=O)[C@H]2CC[C@H]3[C@@H]4CC[C@@H]5C[C@](C)(O)CC[C@@H]5[C@H]4CC[C@]23C)c1 | 1360 nM

System: not listed separately
Test: Lipophilicity, logD of compound at 20 uM at pH 7.4 by HPLC/MS-MS analysis
Format: physicochemical
Settings: buffer

Structure (SMILES) | logD at 20 µM
C[C@@]1(O)CC[C@H]2[C@H](CC[C@@H]3[C@@H]2CC[C@]2(C)[C@@H](C(=O)Cn4cccn4)CC[C@@H]32)C1 | 4.6
Cc1cnn(CC(=O)[C@H]2CC[C@H]3[C@@H]4CC[C@@H]5C[C@](C)(O)CC[C@@H]5[C@H]4CC[C@]23C)c1 | 5

System: not listed separately
Test: Clearance in Sprague-Dawley rat at 5 mg/kg, iv or 20 mg/kg, po measured up to 8 hrs post dose by LC/MS-MS analysis
Format: ADME, organism-based
Settings: in vivo

Structure (SMILES) | clearance
C[C@@]1(O)CC[C@H]2[C@H](CC[C@@H]3[C@@H]2CC[C@]2(C)[C@@H](C(=O)Cn4cccn4)CC[C@@H]32)C1 | 28.3 mL/min/kg
Cc1cnn(CC(=O)[C@H]2CC[C@H]3[C@@H]4CC[C@@H]5C[C@](C)(O)CC[C@@H]5[C@H]4CC[C@]23C)c1 | 63.3 mL/min/kg

System: not listed separately
Test: Clearance in human hepatic microsomes at 10 uM preincubated for 5 mins followed by NADPH addition measured over 60 mins by HPLC-MS/MS analysis
Format: ADME, Microsome
Settings: liver microsomes

Structure (SMILES) | CLhep predicted at 10 µM
C[C@@]1(O)CC[C@H]2[C@H](CC[C@@H]3[C@@H]2CC[C@]2(C)[C@@H](C(=O)Cn4cccn4)CC[C@@H]32)C1 | 5 mL/min/kg
Cc1cnn(CC(=O)[C@H]2CC[C@H]3[C@@H]4CC[C@@H]5C[C@](C)(O)CC[C@@H]5[C@H]4CC[C@]23C)c1 | 8.33 mL/min/kg

System: not listed separately
Test: Clearance in mouse hepatic microsomes at 10 uM preincubated for 5 mins followed by NADPH addition measured over 60 mins by HPLC-MS/MS analysis
Format: ADME, Microsome
Settings: liver microsomes

Structure (SMILES) | CLhep predicted at 10 µM
C[C@@]1(O)CC[C@H]2[C@H](CC[C@@H]3[C@@H]2CC[C@]2(C)[C@@H](C(=O)Cn4cccn4)CC[C@@H]32)C1 | 81.7 mL/min/kg
Cc1cnn(CC(=O)[C@H]2CC[C@H]3[C@@H]4CC[C@@H]5C[C@](C)(O)CC[C@@H]5[C@H]4CC[C@]23C)c1 | 85 mL/min/kg

System: not listed separately
Test: Thermodynamic aqueous solubility of compound at 10 uM sonicated for 1 min followed by incubation for 1 hr by HPLC-MS/MS
Format: physicochemical
Settings: buffer; read-out: Therm_solubility

Structure (SMILES) | solubility thermodynamic at 1 h, 10 µM
C[C@@]1(O)CC[C@H]2[C@H](CC[C@@H]3[C@@H]2CC[C@]2(C)[C@@H](C(=O)Cn4cccn4)CC[C@@H]32)C1 | 8 µM (≈ 3.08 µg/mL)
Cc1cnn(CC(=O)[C@H]2CC[C@H]3[C@@H]4CC[C@@H]5C[C@](C)(O)CC[C@@H]5[C@H]4CC[C@]23C)c1 | 7 µM (≈ 2.79 µg/mL)

System: not listed separately
Test: Ratio of drug level in Sprague-Dawley rat brain to plasma at 5 mg/kg, iv measured at 30 mins post dose by LC/MS-MS analysis
Format: ADME, organism-based
Settings: read-out: BPR

Structure (SMILES) | Kp at 0.5 h
C[C@@]1(O)CC[C@H]2[C@H](CC[C@@H]3[C@@H]2CC[C@]2(C)[C@@H](C(=O)Cn4cccn4)CC[C@@H]32)C1 | 1.1
Cc1cnn(CC(=O)[C@H]2CC[C@H]3[C@@H]4CC[C@@H]5C[C@](C)(O)CC[C@@H]5[C@H]4CC[C@]23C)c1 | 2

System: not listed separately
Test: Oral bioavailability in Sprague-Dawley rat at 20 mg/kg measured up to 8 hrs post dose by LC/MS-MS analysis
Format: ADME, organism-based
Settings: in vivo

Structure (SMILES) | bioavailability
C[C@@]1(O)CC[C@H]2[C@H](CC[C@@H]3[C@@H]2CC[C@]2(C)[C@@H](C(=O)Cn4cccn4)CC[C@@H]32)C1 | 19%
Cc1cnn(CC(=O)[C@H]2CC[C@H]3[C@@H]4CC[C@@H]5C[C@](C)(O)CC[C@@H]5[C@H]4CC[C@]23C)c1 | 9.5%

Molecular target: GABA-A receptor alpha-4/beta-3/delta (Homo sapiens, UniProt P28472+P48169+)
Test: Positive allosteric modulation of GABAA receptor alpha4beta3delta (unknown origin) expressed in CHO cells assessed as potentiation of GABA-mediated increase in channel current under holding potential at -80 mV at 0.01 to 10 uM preincubated for 30 secs followed by GABA stimulation for 2 secs by manual patch clamp assay relative to GABA
Format: cell-based
Settings: 2 s

Sequence of GABA-A receptor alpha-4/beta-3/delta (P28472 whole entry): as the sequence (P28472 whole entry) above
Sequence of GABA-A receptor alpha-4/beta-3/delta (P48169 whole entry): as the sequence (P48169 whole entry) above
Sequence of GABA-A receptor alpha-4/beta-3/delta (Q06278 whole entry, further chain): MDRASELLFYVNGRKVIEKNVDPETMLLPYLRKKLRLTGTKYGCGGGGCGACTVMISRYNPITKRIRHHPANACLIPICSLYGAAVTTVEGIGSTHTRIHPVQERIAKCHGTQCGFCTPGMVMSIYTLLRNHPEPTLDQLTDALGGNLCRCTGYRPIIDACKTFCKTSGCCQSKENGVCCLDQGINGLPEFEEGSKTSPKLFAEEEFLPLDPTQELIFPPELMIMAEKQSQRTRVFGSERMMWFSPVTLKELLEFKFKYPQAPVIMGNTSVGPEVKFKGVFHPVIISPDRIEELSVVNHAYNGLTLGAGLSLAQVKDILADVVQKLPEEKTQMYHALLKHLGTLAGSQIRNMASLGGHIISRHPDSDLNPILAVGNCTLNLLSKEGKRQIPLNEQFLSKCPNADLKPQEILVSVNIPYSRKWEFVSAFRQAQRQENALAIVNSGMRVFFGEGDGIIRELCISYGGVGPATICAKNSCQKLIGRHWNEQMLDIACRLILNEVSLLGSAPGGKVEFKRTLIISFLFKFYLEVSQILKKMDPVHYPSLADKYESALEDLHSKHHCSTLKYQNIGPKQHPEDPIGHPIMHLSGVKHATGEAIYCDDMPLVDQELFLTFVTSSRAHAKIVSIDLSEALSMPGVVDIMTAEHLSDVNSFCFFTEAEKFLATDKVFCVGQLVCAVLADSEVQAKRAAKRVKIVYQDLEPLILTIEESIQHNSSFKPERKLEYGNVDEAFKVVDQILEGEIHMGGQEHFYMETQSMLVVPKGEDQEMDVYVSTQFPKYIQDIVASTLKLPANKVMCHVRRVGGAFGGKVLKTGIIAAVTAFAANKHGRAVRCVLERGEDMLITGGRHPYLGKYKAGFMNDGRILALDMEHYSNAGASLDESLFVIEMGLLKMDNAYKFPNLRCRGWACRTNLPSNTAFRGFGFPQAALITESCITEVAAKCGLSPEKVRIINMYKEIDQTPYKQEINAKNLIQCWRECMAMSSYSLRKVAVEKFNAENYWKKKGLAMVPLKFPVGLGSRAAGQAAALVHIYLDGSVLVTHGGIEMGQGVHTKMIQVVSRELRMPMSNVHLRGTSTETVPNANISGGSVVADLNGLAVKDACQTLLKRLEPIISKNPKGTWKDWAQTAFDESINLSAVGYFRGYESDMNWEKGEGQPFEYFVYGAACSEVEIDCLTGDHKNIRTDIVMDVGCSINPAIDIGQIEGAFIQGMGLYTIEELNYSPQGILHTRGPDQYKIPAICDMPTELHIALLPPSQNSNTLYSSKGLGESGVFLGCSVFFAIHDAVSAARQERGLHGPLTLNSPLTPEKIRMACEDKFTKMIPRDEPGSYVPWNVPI

Structure (SMILES) | Emax
C[C@@]1(O)CC[C@H]2[C@H](CC[C@@H]3[C@@H]2CC[C@]2(C)[C@@H](C(=O)Cn4cccn4)CC[C@@H]32)C1 | 583%
Cc1cnn(CC(=O)[C@H]2CC[C@H]3[C@@H]4CC[C@@H]5C[C@](C)(O)CC[C@@H]5[C@H]4CC[C@]23C)c1 | 841%

System: not listed separately
Test: Clearance in CD1 mouse at 5 mg/kg, iv or 20 mg/kg, po measured up to 8 hrs post dose by LC/MS-MS analysis
Format: ADME, organism-based
Settings: in vivo

Structure (SMILES) | clearance
C[C@@]1(O)CC[C@H]2[C@H](CC[C@@H]3[C@@H]2CC[C@]2(C)[C@@H](C(=O)Cn4cccn4)CC[C@@H]32)C1 | 75 mL/min/kg
Cc1cnn(CC(=O)[C@H]2CC[C@H]3[C@@H]4CC[C@@H]5C[C@](C)(O)CC[C@@H]5[C@H]4CC[C@]23C)c1 | 60 mL/min/kg

Molecular target: GABA-A receptor; alpha-1/beta-2/gamma-2 (Homo sapiens) (UniProt P14867+P47870+P18507)
Test: Positive allosteric modulation of GABAA receptor alpha1beta2gamma2 (unknown origin) expressed in mouse LTK cells assessed as potentiation of GABA-mediated increase in channel current under holding potential at -80 mV at 0.01 to 10 uM preincubated for 30 secs followed by GABA stimulation for 2 secs by automated patch clamp assay relative to GABA
Format: cell-based
Settings: not given

Structure (SMILES) | Emax
C[C@@]1(O)CC[C@H]2[C@H](CC[C@@H]3[C@@H]2CC[C@]2(C)[C@@H](C(=O)Cn4ncc(C#N)n4)CC[C@@H]32)C1 | > 154%
C[C@@]1(O)CC[C@H]2[C@H](CC[C@@H]3[C@@H]2CC[C@]2(C)[C@@H](C(=O)Cn4cccn4)CC[C@@H]32)C1 | 474%
Cc1cnn(CC(=O)[C@H]2CC[C@H]3[C@@H]4CC[C@@H]5C[C@](C)(O)CC[C@@H]5[C@H]4CC[C@]23C)c1 | 427%
